From ChEMBL document CHEMBL1136657, “Novel ether derivatives of mannopeptimycin glycopeptide antibiotic” (2003)
In brackets after ≈: the same amount, converted by molar mass. Blank lines part the entries; values can stand above or below the compound they belong to.

Experiments:
Bacillus cereus = assay: Minimum inhibitory concentration against Bacillus cereus (GC 4561) was determined; format: functional
Enterococcus faecium [1] = assay: Minimum inhibitory concentration against Enterococcus faecium (GC 4557) was determined; format: functional
Streptococcus pneumoniae [2] = assay: Minimum inhibitory concentration against Streptococcus pneumoniae (GC 1894) was determined; format: functional
Escherichia coli [3] = assay: Minimum inhibitory concentration against Escherichia coli (GC 4560) was determined; format: functional
[4] = tested on: Staphylococcus haemolyticus; assay: Minimum inhibitory concentration against Staphylococcus haemolyticus (GC 4546) was determined
[5] = Minimum inhibitory concentration against SCN (GC 4548) was determined; format: functional
[6] = Minimum inhibitory concentration against SCN (GC 4547) was determined; format: functional
Streptococcus pneumoniae [7] = assay: Minimum inhibitory concentration against Streptococcus pneumoniae (GC 4565) was determined; format: functional
Enterococcus avium = assay: Minimum inhibitory concentration against Enterococcus avium (GC 4558) was determined; format: functional
Staphylococcus aureus [8] = assay: Minimum inhibitory concentration against Staphylococcus aureus (GC 3051) was determined; format: functional
Staphylococcus aureus [9] = assay: Minimum inhibitory concentration against Staphylococcus aureus (GC 1131) was determined; format: functional
Enterococcus faecalis [10] = assay: Minimum inhibitory concentration against Enterococcus faecalis (GC 2242) was determined; format: functional
Enterococcus faecalis [11] = assay: Minimum inhibitory concentration against Enterococcus faecalis (GC 6189) was determined; format: functional
Staphylococcus aureus [12] = assay: Minimum inhibitory concentration against Staphylococcus aureus (GC 4545) was determined; format: functional
Enterococcus faecalis [13] = assay: Minimum inhibitory concentration against Enterococcus faecalis (GC 4552) was determined; format: functional
Staphylococcus aureus [14] = assay: Minimum inhibitory concentration against Staphylococcus aureus (GC 4542) was determined; format: functional
[15] = Minimum inhibitory concentration against SCN (GC 4551) was determined; format: functional
[16] = Minimum inhibitory concentration against SCN (GC 4549) was determined; format: functional
Enterococcus faecalis [17] = assay: Minimum inhibitory concentration against Enterococcus faecalis (GC 4555) was determined; format: functional
Enterococcus faecalis [18] = assay: Minimum inhibitory concentration against Enterococcus faecalis (GC 3059) was determined; format: functional
Morganella morganii = assay: Minimum inhibitory concentration against Morganella morganii (GC 4381) was determined; format: functional
Escherichia coli [19] = assay: Minimum inhibitory concentration against Escherichia coli (GC 4564) was determined; format: functional
Staphylococcus aureus [20] = assay: Minimum inhibitory concentration against Staphylococcus aureus (GC 4541 was determined; format: functional
Staphylococcus aureus [21] = assay: Minimum inhibitory concentration against Staphylococcus aureus (GC 4543) was determined; format: functional
Enterococcus faecalis [22] = assay: Minimum inhibitory concentration against Enterococcus faecalis (GC 2691) was determined; format: functional
Escherichia coli [23] = assay: Minimum inhibitory concentration against Escherichia coli (GC 2203) was determined; format: functional
[24] = Minimum inhibitory concentration against SCN (GC 6257) was determined; format: functional
Staphylococcus aureus [25] = assay: Minimum inhibitory concentration against Staphylococcus aureus (GC 4544) was determined; format: functional
Staphylococcus aureus [26] = assay: Minimum inhibitory concentration against Staphylococcus aureus (GC 3066) was determined; format: functional
Candida albicans = assay: Minimum inhibitory concentration against Candida albicans GC 3066 was determined; format: functional
Enterococcus faecalis [27] = assay: Minimum inhibitory concentration against Enterococcus faecalis (GC 4554) was determined; format: functional
Streptococcus agalactiae = assay: Minimum inhibitory concentration against Streptococcus agalactiae (GC4564) was determined; format: functional
Enterococcus faecium [28] = assay: Minimum inhibitory concentration against Enterococcus faecium (GC 2243) was determined; format: functional
Pseudomonas aeruginosa = assay: Minimum inhibitory concentration against Pseudomonas aeruginosa (GC 2214) control was determined; format: functional
Enterococcus faecium [29] = assay: Minimum inhibitory concentration against Enterococcus faecium (GC 4556) was determined; format: functional
Streptococcus pneumoniae [30] = assay: Minimum inhibitory concentration against Streptococcus pneumoniae (GC 6242) was determined; format: functional
Micrococcus luteus = assay: Minimum inhibitory concentration against Sarcina lutea (GC 4562) was determined; format: functional
Enterococcus faecalis [31] = assay: Minimum inhibitory concentration against Enterococcus faecalis (GC 4553) was determined; format: functional
Streptococcus pyogenes = assay: Minimum inhibitory concentration against Streptococcus pyogenes (GC 4563) was determined; format: functional
Staphylococcus aureus [32] = assay: Minimum inhibitory concentration against Staphylococcus aureus (GC 2216) was determined; format: functional
Mus musculus = assay: In vivo activity against Staphylococcus aureus smith was determined after iv administration in mice; format: functional
Staphylococcus aureus [33] = assay: Minimum inhibitory concentration against Staphylococcus aureus smith; format: functional

MIC (Bacillus cereus): 128 µg/mL (≈ 88.2 µM)
MIC (Enterococcus faecium [1]): 32 µg/mL (≈ 22 µM)
MIC (Streptococcus pneumoniae [2]): 16 µg/mL (≈ 11 µM)
MIC (Escherichia coli [3]): 32 µg/mL (≈ 22 µM)
MIC [5]: 64 µg/mL (≈ 44.1 µM)
MIC [6]: 64 µg/mL (≈ 44.1 µM)
MIC (Streptococcus pneumoniae [7]): 32 µg/mL (≈ 22 µM)
MIC (Enterococcus avium): 128 µg/mL (≈ 88.2 µM)
MIC (Staphylococcus aureus [8]): 128 µg/mL (≈ 88.2 µM)
MIC (Staphylococcus aureus [9]): 128 µg/mL (≈ 88.2 µM)
MIC (Enterococcus faecalis [10]): > 128 µg/mL
MIC (Enterococcus faecalis [11]): > 128 µg/mL
MIC (Staphylococcus aureus [12]): 128 µg/mL (≈ 88.2 µM)
MIC (Enterococcus faecalis [13]): > 128 µg/mL
MIC (Staphylococcus aureus [14]): > 128 µg/mL
MIC [15]: 64 µg/mL (≈ 44.1 µM)
MIC [16]: 64 µg/mL (≈ 44.1 µM)
MIC (Enterococcus faecalis [17]): > 128 µg/mL
MIC (Enterococcus faecalis [18]): > 128 µg/mL
MIC (Morganella morganii): > 128 µg/mL
MIC (Escherichia coli [19]): > 128 µg/mL
MIC (Staphylococcus aureus [20]): 64 µg/mL (≈ 44.1 µM)
MIC (Staphylococcus aureus [21]): 64 µg/mL (≈ 44.1 µM)
MIC (Enterococcus faecalis [22]): > 128 µg/mL
MIC (Escherichia coli [23]): > 128 µg/mL
MIC [24]: 32 µg/mL (≈ 22 µM)
MIC (Staphylococcus aureus [25]): 128 µg/mL (≈ 88.2 µM)
MIC (Staphylococcus aureus [26]): 128 µg/mL (≈ 88.2 µM)
MIC (Candida albicans): > 64 µg/mL
MIC (Enterococcus faecalis [27]): > 128 µg/mL
MIC (Streptococcus agalactiae): 32 µg/mL (≈ 22 µM)
MIC (Enterococcus faecium [28]): 128 µg/mL (≈ 88.2 µM)
MIC (Pseudomonas aeruginosa): > 128 µg/mL
MIC (Enterococcus faecium [29]): > 128 µg/mL
MIC (Streptococcus pneumoniae [30]): 32 µg/mL (≈ 22 µM)
MIC (Micrococcus luteus): 16 µg/mL (≈ 11 µM)
MIC (Enterococcus faecalis [31]): 128 µg/mL (≈ 88.2 µM)
MIC (Streptococcus pyogenes): 64 µg/mL (≈ 44.1 µM)
MIC (Staphylococcus aureus [32]): 128 µg/mL (≈ 88.2 µM)
SMILES: COc1ccc2cc(CO[C@@H]3[C@@H](O[C@H]4[C@H](O)[C@H](O)[C@@H](Oc5ccc(C[C@H]6NC(=O)[C@H]([C@@H](C)c7ccccc7)NC(=O)CNC(=O)[C@H](CO)NC(=O)[C@@H]([C@@H](O)[C@@H]7CN=C(N)N7[C@H]7O[C@H](O)[C@@H](O)[C@H](O)[C@@H]7O)NC(=O)[C@H]([C@@H](O)[C@@H]7CN=C(N)N7)NC6=O)cc5)O[C@@H]4CO)O[C@H](CO)[C@@H](O)[C@@H]3O)ccc2c1
MIC [4]: 64 µg/mL (≈ 44.1 µM)

MIC (Bacillus cereus): 64 µg/mL (≈ 44.1 µM)
MIC (Enterococcus faecium [1]): 8 µg/mL (≈ 5.51 µM)
MIC (Streptococcus pneumoniae [2]): 8 µg/mL (≈ 5.51 µM)
MIC (Escherichia coli [3]): > 64 µg/mL
MIC [5]: 0.5 µg/mL (≈ 0.344 µM)
MIC [6]: 1 µg/mL (≈ 0.689 µM)
MIC (Streptococcus pneumoniae [7]): 0.5 µg/mL (≈ 0.344 µM)
MIC (Enterococcus avium): 2 µg/mL (≈ 1.38 µM)
MIC (Staphylococcus aureus [8]): 0.12 µg/mL (≈ 0.0827 µM)
MIC (Staphylococcus aureus [9]): 2 µg/mL (≈ 1.38 µM)
MIC (Enterococcus faecalis [10]): 8 µg/mL (≈ 5.51 µM)
MIC (Enterococcus faecalis [11]): 4 µg/mL (≈ 2.76 µM)
MIC (Staphylococcus aureus [12]): 1 µg/mL (≈ 0.689 µM)
MIC (Enterococcus faecalis [13]): 8 µg/mL (≈ 5.51 µM)
MIC (Staphylococcus aureus [14]): 2 µg/mL (≈ 1.38 µM)
MIC [15]: 2 µg/mL (≈ 1.38 µM)
MIC [16]: 1 µg/mL (≈ 0.689 µM)
MIC (Enterococcus faecalis [17]): 8 µg/mL (≈ 5.51 µM)
MIC (Enterococcus faecalis [18]): 4 µg/mL (≈ 2.76 µM)
MIC (Morganella morganii): > 64 µg/mL
MIC (Escherichia coli [19]): > 64 µg/mL
MIC (Staphylococcus aureus [20]): 1 µg/mL (≈ 0.689 µM)
MIC (Staphylococcus aureus [21]): 1 µg/mL (≈ 0.689 µM)
MIC (Enterococcus faecalis [22]): 0.25 µg/mL (≈ 0.172 µM)
MIC (Escherichia coli [23]): 1 µg/mL (≈ 0.689 µM)
MIC [24]: 0.5 µg/mL (≈ 0.344 µM)
MIC (Staphylococcus aureus [25]): 2 µg/mL (≈ 1.38 µM)
MIC (Staphylococcus aureus [26]): 2 µg/mL (≈ 1.38 µM)
MIC (Candida albicans): > 64 µg/mL
MIC (Enterococcus faecalis [27]): 8 µg/mL (≈ 5.51 µM)
MIC (Streptococcus agalactiae): 0.25 µg/mL (≈ 0.172 µM)
MIC (Enterococcus faecium [28]): 8 µg/mL (≈ 5.51 µM)
MIC (Pseudomonas aeruginosa): 0.12 µg/mL (≈ 0.0827 µM)
MIC (Enterococcus faecium [29]): 8 µg/mL (≈ 5.51 µM)
MIC (Streptococcus pneumoniae [30]): ≤ 0.06 µg/mL
MIC (Micrococcus luteus): 2 µg/mL (≈ 1.38 µM)
MIC (Enterococcus faecalis [31]): 8 µg/mL (≈ 5.51 µM)
MIC (Streptococcus pyogenes): 8 µg/mL (≈ 5.51 µM)
MIC (Staphylococcus aureus [33]): 1 µg/mL (≈ 0.689 µM)
MIC (Staphylococcus aureus [32]): 2 µg/mL (≈ 1.38 µM)
SMILES: COc1ccc2cc(COC[C@H]3O[C@H](O[C@H]4[C@H](O)[C@H](O)[C@@H](Oc5ccc(C[C@H]6NC(=O)[C@H]([C@@H](C)c7ccccc7)NC(=O)CNC(=O)[C@H](CO)NC(=O)[C@@H]([C@@H](O)[C@@H]7CN=C(N)N7[C@H]7O[C@H](O)[C@@H](O)[C@H](O)[C@@H]7O)NC(=O)[C@H]([C@@H](O)[C@@H]7CN=C(N)N7)NC6=O)cc5)O[C@@H]4CO)[C@@H](O)[C@@H](O)[C@@H]3O)ccc2c1
ED50 (Mus musculus): 0.12 mg/kg
MIC [4]: 1 µg/mL (≈ 0.689 µM)
